Active and inactive are the calls of the source.
What was measured:
cells [1] = format: functional, cell-based
cells [2] = format: functional, cell-based; remark: listed apart in the source
Prothrombin = Prothrombin (Homo sapiens, UniProt P00734); test: Thrombin 1536 HTS Dose Response Confirmation. [Related pubchem assays: 1046 (Thrombin 1536 HTS; hits were confirmed in this assay)]; format: functional
[3] = target: T1, DNA repair protein RAD52 homolog (Homo sapiens, UniProt P43351); format: functional, biochemical
T1 sequence (P43351 whole entry): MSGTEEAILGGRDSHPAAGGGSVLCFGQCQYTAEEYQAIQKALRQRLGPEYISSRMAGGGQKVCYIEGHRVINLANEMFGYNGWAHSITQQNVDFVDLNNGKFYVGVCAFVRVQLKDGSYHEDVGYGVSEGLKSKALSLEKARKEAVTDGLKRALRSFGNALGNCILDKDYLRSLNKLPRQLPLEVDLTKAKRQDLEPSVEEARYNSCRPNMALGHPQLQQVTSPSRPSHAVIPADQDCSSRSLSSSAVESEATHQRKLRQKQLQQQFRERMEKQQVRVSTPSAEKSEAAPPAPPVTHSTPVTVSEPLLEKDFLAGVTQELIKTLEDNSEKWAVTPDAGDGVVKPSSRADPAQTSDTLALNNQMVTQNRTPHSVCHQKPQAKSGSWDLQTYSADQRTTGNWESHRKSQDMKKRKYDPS

[4] = A549 cell cytotoxicity, dose response, cytotoxicity control, plate reader, cherry-pick, antagonist series (AID 743412); format: functional, cell-based
[5] = toxicity toward HepG2 liver cells – cell-based, plate reader, cherry-pick, antagonist series, cytotoxicity control, dose response (AID 743416); format: functional
[6] = viability loss in HEK293 cells – cell-based, plate reader, cherry-picked samples, cytotoxicity control, dose response (AID 743446); format: functional
[7] = viability of PTEN-deleted HCT116 cells – cell-based, HCT116 PTEN knockout, dose response (AID 1047); format: functional;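 further: HCT116 colon tumor cells with PTEN knocked out; cells exposed to compound for 60 hours before readout; potency for loss of cell viability measured by luminescence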
[8] = viability of HCT116 lacking mutant beta-catenin – cell-based, human colon tumor, dose response (AID 1045); format: functional;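 further: HCT116 colon tumor cells with beta catenin knocked out; cells exposed to compound for 60 hours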
[9] = Luminescence Cell-Based Dose Retest to Confirm Inhibitors of Cancer Stem Cells. [Related pubchem assays (depositor defined):AID2717, AID2721]; format: functional; details: Homo sapiens
Vero = test: cells; format: functional; details: Chlorocebus sabaeus
[10] = blockers of HIV-1 envelope-mediated cell-cell fusion – cherry-pick, dose response (AID 652057); format: functional, cell-based
[11] = off-target signal loss in HeLa-CEM21 co-culture – HeLa F-luc CTL cells, cherry-picked, counter-screen for HIV-1 Env fusion inhibitor project, dose response (AID 652040); format: functional, cell-based;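 further: potency for signal decrease marking cytotoxic or nonspecific inhibition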
[12] = HIV-1 AD8 envelope cell-cell fusion blockers – cherry-pick, dose response (AID 652062); format: functional, cell-based;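 further: luciferase signal from cell-cell fusion driven by HIV-1 clade B AD8 Env; potency is for inhibitors of fusion seen as a drop in luminescence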
[13] = test system: Streptococcus sp. 'group A'; test: Streptococcus pyogenes SK(-)GAS viability under kanamycin – luminescence, BacTiterGlo, confirmation, counter-screen for streptokinase expression inhibitor project, dose response (AID 1900); format: functional, organism-based
[14] = Trypanosoma cruzi growth suppression in host cells – NIH3T3 host cells, beta-gal luminescence, confirmation (AID 2044); format: functional, cell-based;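 further: intracellular parasites grown in NIH/3T3 mouse fibroblasts as host cells; luminescent beta-galactosidase reporter signal from transgenic T. cruzi replicating inside host cells; inhibitors lower the luminescence signal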
[15] = NIH3T3 cell viability loss – ATP luminescence, mouse fibroblasts, counter-screen, dose response (AID 2010); format: functional, cell-based;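 further: cells exposed to compound for about 90 hours before reading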
Streptococcus = test: GAS UMAA2166 growth inhibition – luminescence, BacTiterGlo, counter-screen for streptokinase expression inhibitor project, dose response (AID 1915); format: functional, organism-based;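 further: potency for reduction of bacterial viability or growth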
Large T antigen = Large T antigen (Simian virus 40, UniProt P03070); format: functional, Betapolyomavirus macacae;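 further: Confirmatory-stage PubChem screen for compounds that inhibit SV40 T antigen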
Chain of Large T antigen (P03070 whole entry): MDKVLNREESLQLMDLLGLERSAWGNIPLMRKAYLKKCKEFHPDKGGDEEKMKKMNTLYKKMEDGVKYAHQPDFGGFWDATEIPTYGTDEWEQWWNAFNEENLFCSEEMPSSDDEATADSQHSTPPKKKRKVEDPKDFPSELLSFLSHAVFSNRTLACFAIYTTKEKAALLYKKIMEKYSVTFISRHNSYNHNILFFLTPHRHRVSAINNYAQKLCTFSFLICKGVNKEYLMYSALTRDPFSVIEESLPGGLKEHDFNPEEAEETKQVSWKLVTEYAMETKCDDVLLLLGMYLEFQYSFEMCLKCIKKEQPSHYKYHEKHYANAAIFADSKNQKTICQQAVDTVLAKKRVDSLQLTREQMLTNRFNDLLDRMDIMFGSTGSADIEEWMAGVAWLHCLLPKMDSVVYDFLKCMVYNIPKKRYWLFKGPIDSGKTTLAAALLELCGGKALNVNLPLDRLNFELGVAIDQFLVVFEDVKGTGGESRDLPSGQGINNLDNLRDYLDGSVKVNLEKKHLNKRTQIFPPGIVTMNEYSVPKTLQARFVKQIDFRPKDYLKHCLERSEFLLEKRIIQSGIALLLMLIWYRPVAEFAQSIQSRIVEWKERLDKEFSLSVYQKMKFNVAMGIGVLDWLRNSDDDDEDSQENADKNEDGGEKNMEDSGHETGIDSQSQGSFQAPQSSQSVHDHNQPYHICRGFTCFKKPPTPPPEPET

[16] = target: FAD-linked sulfhydryl oxidase ALR (Homo sapiens, UniProt P55789); test: ALR-catalysed DTT oxidation blockers – biochemical, H2O2 detection, luminescence, cherry-pick, dose response (AID 493248)
Chain of FAD-linked sulfhydryl oxidase ALR (P55789 whole entry): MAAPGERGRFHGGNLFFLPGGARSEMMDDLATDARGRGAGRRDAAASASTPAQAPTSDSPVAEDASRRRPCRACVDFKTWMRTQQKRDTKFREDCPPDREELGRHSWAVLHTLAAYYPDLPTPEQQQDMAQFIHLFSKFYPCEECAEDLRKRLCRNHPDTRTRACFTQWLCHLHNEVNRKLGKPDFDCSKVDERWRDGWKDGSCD

[17] = target: T2, Methionyl-tRNA synthetase, putative (Trypanosoma brucei brucei, UniProt Q38C91); format: functional, Trypanosoma brucei brucei strain 927/4 GUTat10.1
T2 sequence (Q38C91 whole entry): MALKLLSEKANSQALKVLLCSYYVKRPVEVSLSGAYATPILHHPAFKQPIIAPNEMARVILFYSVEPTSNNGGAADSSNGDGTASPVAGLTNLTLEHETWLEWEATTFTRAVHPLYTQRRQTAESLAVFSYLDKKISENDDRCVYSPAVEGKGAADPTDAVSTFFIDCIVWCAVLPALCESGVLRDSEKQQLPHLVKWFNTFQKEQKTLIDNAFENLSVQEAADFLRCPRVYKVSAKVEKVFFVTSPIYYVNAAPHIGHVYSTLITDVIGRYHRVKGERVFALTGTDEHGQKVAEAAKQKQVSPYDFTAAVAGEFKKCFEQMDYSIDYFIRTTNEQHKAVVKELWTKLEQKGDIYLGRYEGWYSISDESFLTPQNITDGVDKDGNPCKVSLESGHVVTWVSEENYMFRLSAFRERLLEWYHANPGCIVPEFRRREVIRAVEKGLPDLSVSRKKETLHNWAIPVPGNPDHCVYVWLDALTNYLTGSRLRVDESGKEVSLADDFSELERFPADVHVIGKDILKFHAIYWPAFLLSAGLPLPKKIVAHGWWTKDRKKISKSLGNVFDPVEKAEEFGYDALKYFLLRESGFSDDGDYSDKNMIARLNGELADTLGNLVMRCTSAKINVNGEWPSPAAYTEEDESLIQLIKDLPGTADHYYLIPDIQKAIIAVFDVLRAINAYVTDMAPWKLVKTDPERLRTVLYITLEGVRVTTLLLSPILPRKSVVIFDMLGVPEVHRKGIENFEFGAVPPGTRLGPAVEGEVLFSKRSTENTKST

[18] = Counterscreen for inhibitors of Trypanosoma brucei methionyl tRNA synthetase (MetRS): Luminescence-based cell-based high throughput dose response assay to identify compounds that are cytotoxic to Jurkat human T lymphocyte cells.; format: functional
[19] = target: T2, Methionyl-tRNA synthetase, putative; format: functional, Trypanosoma brucei brucei strain 927/4 GUTat10.1; remark: listed apart in the source
[20] = blockers of HIV-1 ZM109 envelope-driven cell-cell fusion – HeLa effector, CEM target cells, luciferase, cherry-pick, dose response (AID 652058); format: functional, cell-based;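 further: luciferase signal from HIV-1 Env mediated cell-cell fusion of effector and target cells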
[21] = Luminescence Cell-Based Dose Confirmation HTS to Identify Activators of 5'UTR Stem-Loop Driven Alpha-Synuclein mRNA Translation in H4 Neuroglioblastoma Cells. [Related pubchem assays: 1829 (Project Summary), 1814 (Primary HTS)]; format: functional
[22] = Luminescence Cell-Based Dose Response HTS to Identify Activators of Luciferase Translation or Activity in H4 […] Cells. [Related pubchem assays: 1829 (Project Summary), 1814 (Primary HTS)]; format: functional
H4 = test: Luminescence Cell-Based Dose Response HTS to Identify Activators of 5'UTR Stem-Loop Driven Prion Protein mRNA Translation in H4 Neuroglioblastoma Cells. [Related pubchem assays: 1829 (Project Summary), 1814 (Primary HTS)]; format: functional; details: Homo sapiens

CC(Cc1ccccc1)NC(=O)/C=C/C(=O)O (stereo not given)
IC50 (cells [1]): > 29.9 µM (inactive)
EC50 (cells [2]): > 29.9 µM (inactive)

Cc1cc(C(=O)CSc2nnnn2C)c(C)n1-c1cccc(F)c1
IC50 (Prothrombin): > 50 µM (not active)

NCc1cc2c3c(c1)CCCN3CCC2
AC50 [3]: 1.92 µM (active)

COc1ccccc1NC(=O)N1CCCC1C(=O)NC1CCCCC1 (stereo not given)
IC50 (Prothrombin): > 50 µM (not active)

COc1ccccc1N1CCN(C(=O)c2sc3nc(-c4ccc(F)cc4)cn3c2C)CC1
AC50 [4]: > 52 µM (inactive)
AC50 [5]: 43.3 µM (active)
AC50 [6]: 37.1 µM (active)

Cc1cc2nc(-c3ccc(SCC(=O)Nc4nccs4)nc3)[nH]c2cc1C
EC50 [7]: 19.6 µM (active)
EC50 [8]: 33.3 µM (active)

COc1ccc(C)cc1N1C(=O)C(c2ccccc2)C(c2nc3ccccc3s2)=C1N (stereo not given)
EC50 [7]: 3.06 µM (active)
EC50 [8]: 2.48 µM (active)
AC50 [9]: 4.88 µM (active)
CC50 (Vero): 6.15 µM (active)

CCN(CC)CCCNC(=O)c1csc(Nc2cccc3ccccc23)n1
AC50 [3]: 21.9 µM (active)

CC(C)N(Cc1nc(-c2ccccc2)no1)C(=O)CN(C)S(=O)(=O)c1ccc(Br)cc1
AC50 [10]: 49.9 µM (active)
AC50 [11]: 60.4 µM (active)
AC50 [12]: 20.1 µM (active)

O=C(CNC(=O)OCc1ccccc1)Nc1ccc(Br)cc1C(=O)c1ccccc1Cl
EC50 [7]: 44.5 µM (active)
EC50 [8]: 45.4 µM (active)

COc1ccccc1/C=C/c1ccc2cccc(O)c2n1
EC50 [13]: 1.52 µM (active)
EC50 [14]: 2.74 µM (active)
EC50 [15]: > 60 µM (not active)
EC50 (Streptococcus): 6 µM (active)
CC50 (Vero): > 25 µM (active)

NC(=O)Nc1ccc(Nc2ccccc2)cc1
IC50 (Large T antigen): 7.83 µM (active)
AC50 [16]: 0.916 µM (active)

C#CCSc1nncn1C(=O)/C=C/c1ccccc1
IC50 (Prothrombin): 0.294 µM (active)

CC(C)(C)[C@H]1C=C(C(=O)NCc2nc3ccccc3[nH]2)O[C@@H](OCCCCO)C1
IC50 [17]: 6.66 µM (active)
IC50 [18]: 83.3 µM (inactive)
IC50 [19]: 2.63 µM (active)

COc1ccc(C2C=C(c3ccc(Br)cc3)Nc3nc(N4C(=O)CCC4=O)nn32)cc1 (stereo not given)
IC50 (Prothrombin): > 50 µM (not active)

O=C(Nc1ccc(O)cc1)c1ccc(NC(=O)C2CCCO2)cc1 (stereo not given)
IC50 (Large T antigen): 11.1 µM (active)

O=C(Nc1ccc(CN2CCS(=O)(=O)CC2)cc1)c1ccc(C(F)(F)F)cc1
AC50 [11]: > 70 µM (inactive)
AC50 [12]: 3.22 µM (active)

CSCc1nc2scc(-c3ccccc3)c2c(=O)[nH]1
IC50 (Prothrombin): > 50 µM (not active)

Cc1cc(C(=O)COc2cccc(-n3cnnn3)c2)c(C)n1-c1ccccc1
EC50 [7]: 48.3 µM (active)
EC50 [8]: 77.4 µM (active)

Cc1ccc(CNC(=O)CSc2n[nH]c3c4cc(F)ccc4nc-3n2)cc1
IC50 [17]: 119 µM (inactive)
IC50 [18]: 83.3 µM (inactive)
IC50 [19]: 0.785 µM (active)

CCN1C(=O)C(CC(=O)Nc2ccc(OC)cc2)N(CCc2ccc(F)cc2)C1=S (stereo not given)
IC50 [17]: 11.4 µM (inactive)
IC50 [18]: 61.1 µM (inactive)
IC50 [19]: 6.2 µM (active)

Cc1ccccc1CCN(C(=O)c1csnn1)C(C(=O)NC1CCCC1)c1ccncc1 (stereo not given)
AC50 [10]: 0.548 µM (active)
AC50 [20]: 0.742 µM (active)
AC50 [11]: 1.13 µM (active)
AC50 [12]: < 0.26 µM (active)

O=C(CNC(=O)c1ccccc1F)OCC(=O)c1c[nH]c2ccccc12
IC50 (cells [1]): > 29.9 µM (inactive)
EC50 (cells [2]): > 29.9 µM (inactive)

OC(c1cc(F)cc(Cl)c1)c1nc(-c2ccc(Cl)cc2)c[nH]1 (stereo not given)
IC50 [17]: 15 µM (inactive)
IC50 [18]: 56.3 µM (inactive)
IC50 [19]: 6.73 µM (active)

Sc1nnc(COc2ccccc2)n1/N=C/C(Cl)=C/c1ccccc1
EC50 [21]: 6.85 µM (active)
EC50 [22]: 12.6 µM (active)
EC50 (H4): > 120 µM (not active)
AC50 [9]: 2.32 µM (active)
CC50 (Vero): > 25 µM (active)

CC1CCN(S(=O)(=O)c2cc(C(=O)N3CCN(c4ccccc4)CC3)ccc2Br)CC1
AC50 [10]: 40.3 µM (active)
AC50 [20]: 3.22 µM (active)
AC50 [12]: 4.92 µM (active)

CC(C)CC#Cc1ccc2c(c1)O[C@@H](CN(C)S(=O)(=O)c1cccc(F)c1)[C@@H](C)CN([C@@H](C)CO)S2(=O)=O
AC50 [10]: 7.21 µM (active)
AC50 [20]: 8.81 µM (active)
AC50 [12]: 11.6 µM (active)

C[C@H](CO)N1C[C@H](C)[C@H](CN(C)S(=O)(=O)c2ccccc2F)Oc2ncc(/C=C/c3ccccc3)cc2C1=O
AC50 [10]: 3.51 µM (active)
AC50 [20]: 10.2 µM (active)
AC50 [12]: 10.1 µM (active)

COc1cccc(S(=O)(=O)N(C)C[C@@H]2Oc3cc(C#CCC(C)C)ccc3S(=O)(=O)N([C@@H](C)CO)C[C@@H]2C)c1
AC50 [10]: 20 µM (active)
AC50 [20]: 46.1 µM (active)
AC50 [12]: 25.7 µM (active)

N=C(N)N/N=C/c1ccc(OCc2ccccc2Cl)cc1
EC50 [14]: 0.539 µM (active)
EC50 [7]: 4.14 µM (active)
EC50 [15]: > 60 µM (not active)
EC50 [8]: 4.04 µM (active)
AC50 [3]: 16.6 µM (active)

Source: ChEMBL document CHEMBL1201862, “PubChem BioAssay data set” (2004)
